Measured values reported in patent US5126345A, “Bis (hydroxymethyl) cyclobutyl triazolopyrimidines” (E. R. Squibb & Sons, Inc., priority 1991, dated 1992).
Like-named read-outs stand apart in the source and are kept apart here.

How the values were obtained:
Assay type in all cases: cell-based
[1] = test system: HSV-2 (herpes simplex virus type 2, strain 186); assay: HSV-2 antiviral assay, plaque reduction in WI-38 cell culture monolayers; conditions: Human alphaherpesvirus 2, 96 h; at least 50% plaque reduction; WI-38 cells; 4 days incubation at 37° C; read-out: ID50 HSV-2
Experimental: (§1) Assays were performed in cell culture systems to determine the concentrations of compounds that are effective in preventing several kinds of viral infections.
(§2) HSV-1 (herpes simplex virus type 1, strain Schooler), HSV-2 (herpes simplex virus type 2, strain 186), VZV (varicella zoster virus, strain ELLEN), HCMV (human cytomegalovirus, strain AD 169), MuLV (murine leukemia virus, strain CAS), HIV (human immunodeficiency virus, strain HTLV-IIIB).
(§3) HSV-1, HSV-2, HCMV, and VZV antiviral assays: Virus was adsorbed to WI-38 cell culture monolayers in 6 well culture plates (Costar, Cambridge, MA) for 1 hour prior to addition of maintenance medium containing duplicate dilutions of the test compound. Inhibition of plaque development was evaluated on fixed and stained monolayers after 4 days incubation at 37° C. for HSV-1 and HSV-2 and after 6-7 days incubation at 37° C. for HCMV and VZV. ID50 values were determined from the drug concentration which conferred at least a 50% plaque reduction compared to virus controls.

[2] = test system: HSV-1 (herpes simplex virus type 1, strain Schooler); assay: HSV-1 antiviral assay, plaque reduction in WI-38 cell culture monolayers; conditions: Human alphaherpesvirus 1, 96 h; at least 50% plaque reduction; WI-38 cells; 4 days incubation at 37° C; read-out: ID50 HSV-1
Experimental: as §1, §2, §3

[3] = test system: HCMV (human cytomegalovirus, strain AD 169); assay: HCMV antiviral assay, plaque reduction in WI-38 cell culture monolayers
Experimental: as §1, §2, §3

[4] = test system: VZV (varicella zoster virus, strain ELLEN); assay: VZV antiviral assay, plaque reduction in WI-38 cell culture monolayers
Experimental: as §1, §2, §3

[5] = test system: MuLV (murine leukemia virus, strain CAS); assay: MuLV antiviral assay, syncytial plaques, SC-1 cells with XC cell overlay; conditions: SC1, read-out: ID50 MuLV
Experimental: as §1, §2
MuLV antiviral assay: Antiviral assays using MuLV were performed with some modification, as described by Rowe et al. and Shannon et al.. SC-1 cells were planted at approximately 2×10^5 cell per well in 6 well plates. After overnight incubation at 37° C., the cell cultures were sensitized with DEAE-Dextran for one hour at 37° C., rinsed and inoculated with MuLV. Cultures were re-fed with growth medium containing different concentrations of the test compound. After three more days at 37° C., cultures were re-fed with fresh medium plus test compounds and incubated at 37° C. for an additional 3 days. Cultures were then washed to remove medium, ultraviolet light irradiated, and planted with approximately 5×10^5 XC cells per well in cell growth medium containing the appropriate concentration of the test compound. […] Finally the cultures were rinsed, stained and syncytial plaques were counted. […]

[6] = Human betaherpesvirus 5, WI-38, read-out: ID50 HCMV
[7] = Human alphaherpesvirus 3, WI-38, read-out: ID50 VZV
[8] = Human alphaherpesvirus 3, at least 50% plaque reduction, WI-38 cells, 6-7 days incubation at 37° C, read-out: ID50 VZV

SMILES	IC50 [1] [µM]	IC50 [2] [µM]	IC50 [3, 6] [µM]	IC50 [4, 7] [µM]	IC50 ([3]; Human betaherpesvirus 5, at least 50% plaque reduction, WI-38 cells, 6-7 days incubation at 37° C, read-out: ID50 HCMV) [µM]	IC50 [4, 8] [µM]	IC50 [5] [µM]
Nc1nc2c(nnn2[C@H]2C[C@@H](CO)[C@@H]2CO)c(=O)[nH]1 (relative stereo) [(1α,2β,3α)-5-Amino-3-[2,3-bis(hydroxymethyl)cyclobutyl]-3,6-dihydro-7H-1,2,3-triazolo[4,5-d]pyrimidin-7-one]	7.5	7.5	376				
Nc1ccn([C@H]2C[C@@H](CO)[C@@H]2CO)c(=O)n1 (relative stereo) [(1α,2β,3α)-4-Amino-1-[2,3-bis(hydroxymethyl)cyclobutyl]-2(1H)-pyrimidinone]	444	444		22	22 to 44		
Nc1ncnc2c1ncn2[C@H]1C[C@@H](CO)[C@@H]1CO (relative stereo) [(1α,2β,3α)-3-(6-Amino-9H-purin-9-yl)1,2-cyclobutanedimethanol]	4 to 8	8	0.8			0.8 to 2	
O=c1[nH]c(=O)n([C@H]2C[C@@H](CO)[C@@H]2CO)cc1I (relative stereo) [(1α,2β,3α)-1-[2,3-Bis(hydroxymethyl)cyclobutyl]-5-iodo-2,4(1H,3H)-pyrimidinedione]		6 to 14				14 to 28	
O=c1[nH]c(=O)n([C@H]2C[C@@H](CO)[C@@H]2CO)cc1/C=C/Br (relative stereo) [[1α(E),2β,3α]-1-[2,3-Bis(hydroxymethyl)cyclobutyl]-5-(2-bromoethenyl)-2,4(1H,3H)pyrimidinedione]		10 to 30				0.03 to 0.06	
Nc1nc2c(ncn2[C@H]2C[C@@H](CO)[C@@H]2CO)c(=O)[nH]1 (relative stereo) [(1α,2β,3α)-9-[2,3-Bis(hydroxymethyl)cyclobutyl]guanine]	0.04 to 0.08	0.08 to 0.2	3.8	0.2			3.8
